Results reported in US5614508A, “Amino acid derivatives of substituted quinoxaline 2,3-dione derivatives as glutamate receptor antagonists” (Warner-Lambert Company, priority 1995, dated 1997).

What was measured:
[1] = target: kainate site (non-NMDA receptor); test: binding affinity for the kainate site (non-NMDA receptor) (London and Coyle); settings: Table 1, KA
[2] = target: AMPA receptors; test: binding affinity for the AMPA receptors (Honore et al.); settings: Table 1, AMPA

| IC50 KA [1] | IC50 [2] | Compound |
| --- | --- | --- |
| 4680 nM | 1760 nM | C=Cc1c(Br)cc2[nH]c(=O)c(=O)[nH]c2c1CN(C)CC(=O)O [Compound 1, [(7-Bromo-2,3-dioxo-6-vinyl-1,2,3,4-tetrahydro-quinoxalin-5-ylmethyl)-methyl-amino]-acetic acid] |
| 6720 nM | 2350 nM | CCc1c(Br)cc2[nH]c(=O)c(=O)[nH]c2c1CN(C)CC(=O)O [Compound 2, [(7-Bromo-6-ethyl-2,3-dioxo-1,2,3,4-tetrahydro-quinoxalin-5-ylmethyl)-methyl-amino]-acetic acid] |
| 3480 nM | 128 nM | CCOC(=O)CN(C)Cc1c(CC)c([N+](=O)[O-])cc2[nH]c(=O)c(=O)[nH]c12 [Compound 3, [(6-Ethyl-7-nitro-2,3-dioxo-1,2,3,4-tetrahydro-quinoxalin-5-ylmethyl)-methyl-amino]-acetic acid ethyl ester] |
| 17050 nM | 3920 nM | CCc1ccc2[nH]c(=O)c(=O)[nH]c2c1CN(C)CC(=O)O [Compound 4, [(6-Ethyl-2,3-dioxo-1,2,3,4-tetrahydro-quinoxalin-5ylmethyl)-methyl-amino]-acetic acid] |
